Laboratory results published in patent US20100267561A1, “HERBICIDAL PYRIDAZINONE DERIVATIVES” (priority 2007, published 2010).

Columns and labels:
Test in all cases: Test B pre-/postemergence plant response
Format in all cases: in vivo
[1] = test system: yellow nutsedge (Cyperus esculentus); conditions: Preemergence
Outline: (§1)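 Visual scoring from 0 (no effect) to 100 (complete control) against untreated controls was done 13 to 15 days after greenhouse treatment. Chemicals were formulated in a surfactant-containing non-phytotoxic solvent and applied to soil preemergence or to 1- to 4-leaf (2-18 cm) plants postemergence.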

[2] = test system: large crabgrass (Digitaria sanguinalis); conditions: Preemergence
Outline: as §1

[3] = test system: catchweed bedstraw (Galium aparine); conditions: Preemergence
Outline: as §1

[4] = test system: kochia (Kochia scoparia); conditions: Preemergence
Outline: as §1

[5] = test system: goosegrass (Eleusine indica); conditions: Preemergence
Outline: as §1

[6] = test system: wild oat (Avena fatua); conditions: Preemergence
Outline: as §1

[7] = test system: cocklebur (Xanthium strumarium); conditions: Preemergence
Outline: as §1

[8] = test system: common ragweed (Ambrosia elation); conditions: Preemergence
Outline: as §1

[9] = test system: velvetleaf (Abutilon theophrasti); conditions: Preemergence
Outline: as §1

[10] = test system: johnsongrass (Sorghum halepense); conditions: Preemergence, scale 0 to 100
Outline: as §1

[11] = test system: corn (Zea mays); conditions: Preemergence
Outline: as §1

[12] = test system: woolly cupgrass (Eriochloa villosa); conditions: Preemergence
Outline: as §1

[13] = test system: blackgrass (Alopecurus myosuroides); conditions: for Plant response rating, Blackgrass: Preemergence
Outline: as §1

[14] = 31 g ai/ha, 0 to 100 scale, 0 no effect, 100 complete control

For Cc1cc(-c2ccc(C(F)(F)F)cc2)nn1-c1c(OC(=O)C(C)(C)C)cnn(C)c1=O [Compound 2], the “Plant response rating, Nutsedge, Yellow” value [1, 14] was 0, the “Plant response rating, Nutsedge, Yellow” value ([1]; 62 g ai/ha, scale 0 to 100) was 0 and the “Plant response rating, Nutsedge, Yellow” value ([1]; 125 g ai/ha, scale 0 to 100) was 0. The “Plant response rating, Nutsedge, Yellow” value ([1]; 250 g ai/ha, scale 0 to 100) was 0, the “Plant response rating, Crabgrass, Large” value [2, 14] was 98 and the “Plant response rating, Crabgrass, Large” value ([2]; 62 g ai/ha, scale 0 to 100) was 100. The “Plant response rating, Crabgrass, Large” value ([2]; 125 g ai/ha, scale 0 to 100) was 100, the “Plant response rating, Crabgrass, Large” value ([2]; 250 g ai/ha, scale 0 to 100) was 100 and the “Plant response rating, Galium” value [3, 14] was 100. For the same compound, the “Plant response rating, Galium” value ([3]; 62 g ai/ha, scale 0 to 100) was 100, the “Plant response rating, Galium” value ([3]; 250 g ai/ha, scale 0 to 100) was 100 and the “Plant response rating, Kochia” value [4, 14] was 0. For the same compound, the “Plant response rating, Kochia” value ([4]; 62 g ai/ha, scale 0 to 100) was 0, the “Plant response rating, Kochia” value ([4]; 125 g ai/ha, scale 0 to 100) was 0 and the “Plant response rating, Kochia” value ([4]; 250 g ai/ha, scale 0 to 100) was 50. For the same compound, the “Plant response rating, Goosegrass” value [5, 14] was 50, the “Plant response rating, Goosegrass” value ([5]; 62 g ai/ha, scale 0 to 100) was 60 and the “Plant response rating, Goosegrass” value ([5]; 125 g ai/ha, scale 0 to 100) was 95. For the same compound, the “Plant response rating, Goosegrass” value ([5]; 250 g ai/ha, scale 0 to 100) was 95, the “Plant response rating, Oat, Wild” value [6, 14] was 0 and the “Plant response rating, Oat, Wild” value ([6]; 62 g ai/ha, scale 0 to 100) was 50. For the same compound, the “Plant response rating, Oat, Wild” value ([6]; 250 g ai/ha, scale 0 to 100) was 60, the “Plant response rating, Cocklebur” value [7, 14] was 0 and the “Plant response rating, Cocklebur” value ([7]; 62 g ai/ha, scale 0 to 100) was 0. The “Plant response rating, Cocklebur” value ([7]; 125 g ai/ha, scale 0 to 100) was 0, the “Plant response rating, Cocklebur” value ([7]; 250 g ai/ha, scale 0 to 100) was 0 and the “Plant response rating, Ragweed” value [8, 14] was 0. The “Plant response rating, Ragweed” value ([8]; 62 g ai/ha, scale 0 to 100) was 0, the “Plant response rating, Ragweed” value ([8]; 125 g ai/ha, scale 0 to 100) was 0 and the “Plant response rating, Ragweed” value ([8]; 250 g ai/ha, scale 0 to 100) was 0. The “Plant response rating, Velvetleaf” value [9, 14] was 0, the “Plant response rating, Velvetleaf” value ([9]; 62 g ai/ha, scale 0 to 100) was 0 and the “Plant response rating, Velvetleaf” value ([9]; 125 g ai/ha, scale 0 to 100) was 0. For the same compound, the “Plant response rating, Velvetleaf” value ([9]; 250 g ai/ha, scale 0 to 100) was 10, the “Plant response rating, Johnsongrass” value ([10]; 62 g ai/ha) was 80 and the “Plant response rating, Johnsongrass” value ([10]; 250 g ai/ha) was 80. For the same compound, the “Plant response rating, Corn” value [11, 14] was 50, the “Plant response rating, Corn” value ([11]; 62 g ai/ha, scale 0 to 100) was 90 and the “Plant response rating, Corn” value ([11]; 125 g ai/ha, scale 0 to 100) was 95. The “Plant response rating, Corn” value ([11]; 250 g ai/ha, scale 0 to 100) was 95, the “Plant response rating, Cupgrass, Woolly” value [12, 14] was 70 and the “Plant response rating, Cupgrass, Woolly” value ([12]; 62 g ai/ha, scale 0 to 100) was 80. For the same compound, the “Plant response rating, Cupgrass, Woolly” value ([12]; 125 g ai/ha, scale 0 to 100) was 80, the “Plant response rating, Cupgrass, Woolly” value ([12]; 250 g ai/ha, scale 0 to 100) was 100 and the “Blackgrass plant response rating” value ([13]; 250 g ai/ha, preemergence, 0-100 scale) was 100. The “Plant response rating, Blackgrass” value [13, 14] was 60, the “Plant response rating, Blackgrass” value ([13]; 62 g ai/ha, scale 0 to 100) was 80 and the “Plant response rating, Blackgrass” value ([13]; 125 g ai/ha, scale 0 to 100) was 100.
